According to patent US20150209366A1, “COMBINATION OF A MACROCYCLIC PROTEASE INHIBITOR OF HCV, A NON-NUCLEOSIDE HCV INHIBITOR AND RITONAVIR” (Janssen Pharmaceuticals, Inc., priority 2012, published 2015):

Legend:
[1] = Pharmacokinetics of compound (I), alone versus in combination with (III) and ritonavir, healthy subjects; assay type: in vivo, human; details: geometric mean; for Cmax / AUC(0-t): human, in vivo; for AUC(0-t): read-out: AUC24 h
Description: The pharmacokinetic variables for the compound of formula (I) and (III) administered alone where compared when they were co-administered in a combination of (I), (II) and (III). All tables indicate Geometric mean (CV %) pharmacokinetic parameters and might be the result of multiple studies. The compounds are indicated by their respective numbers (I, II or III) in the tables below. A comparison is made between administration of compound of Formula (I) 150 mg alone versus 300 mg compound of formula (III) in combination with 50 mg of compound of Formula (I) and 20 mg of Ritonavir (compound of Formula (II) according to the following protocol. • 150 mg qd (I) given for 14 days to 10 healthy subjects • Washout of 14 days • 50 mg qd (I), 300 mg qd (III), 20 mg qd ritonavir (II) given for 14 days to the same 10 healthy volunteers.

[2] = Pharmacokinetics of compound (III), alone versus in combination with (I) and ritonavir; assay type: in vivo, human; details: geometric mean (CV%); for Cmax / AUC(0-t): human, in vivo; for AUC(0-t): read-out: AUC24 h
Description: The pharmacokinetic variables for the compound of formula (I) and (III) administered alone where compared when they were co-administered in a combination of (I), (II) and (III). All tables indicate Geometric mean (CV %) pharmacokinetic parameters and might be the result of multiple studies. The compounds are indicated by their respective numbers (I, II or III) in the tables below. A comparison is made between an administration of compound of Formula (III) 1000 mg alone, versus 300 mg compound of formula (III) in combination with 50 mg of compound of Formula (I) and 20 mg of Ritonavir (compound of Formula (II). The results are indicated in table 2 below.

[3] = 50 mg (I) + 300 mg (III) + 20 mg RTV qd for 14 days, same 10 healthy volunteers
[4] = (I) alone, 150 mg qd for 14 days, 10 healthy subjects
[5] = 300 mg (III) + 50 mg (I) + 20 mg (II) qd

Compound	Cmin [1, 3]	Cmin [1, 4]	Cmax [1, 3]	AUC(0-t) [1, 3]	Cmax [1, 4]	AUC(0-t) [1, 4]	Cmin [2, 5]	Cmin ([2]; (III) alone, 1000 mg bid)	Cmax [2, 5]	AUC(0-t) [2, 5]	Cmax ([2]; (III) alone, 1000 mg bid)	AUC(0-t) ([2]; (III) alone, 1000 mg bid)
COc1ccc2c(O[C@@H]3C[C@H]4C(=O)N[C@]5(C(=O)NS(=O)(=O)C6CC6)C[C@H]5/C=C\CCCCN(C)C(=O)[C@@H]4C3)cc(-c3nc(C(C)C)cs3)nc2c1C [I, (1R,4R,6S,15R,17R)-cis-N-[17-[2-(4-isopropylthiazole-2-yl)-7-methoxy-8-methylquinolin-4-yloxy]-13-methyl-2,14-dioxo-3,13-diazatricyclo[13.3.0.0^4,6]octadec-7-ene-4-carbonyl]-(cyclopropyl)sulfonamide]	375 ng/mL	1405 ng/mL	1460 ng/mL	20000 ng·h/mL	4750 ng/mL	71200 ng·h/mL						
COc1ccc2c(c1)C=C1Cn3c-2c(C2CCCCC2)c2ccc(cc23)C(=O)NS(=O)(=O)N(C)CCOCCN(C)C1=O [III]							0.21 (86%) μg/ml	0.16 (42%) μg/ml	6570 ng/mL	52200 ng·h/mL	5220 ng/mL	40100 ng·h/mL
